Experimental data taken from US6790838B2, “Combinations and methods for promoting in vivo liver cell proliferation and enhancing in vivo liver-directed gene transduction” (Amgen, Inc., priority 1999, dated 2004).

What was measured:
hepatocytes [1] = experiment: Hepatocyte proliferation in vivo by BrdU labeling after growth factor injection; parameters: species or system rat; conditions: for zones of the liver showing cell proliferation / time after injection having maximum liver cell proliferation: KGF 1 mg/kg or T3 4 mg/kg s.c.; for proportion of hepatocytes proliferating (BrdU labelled, S-phase) at 24 hours: T3 4 mg/kg and/or KGF 1 mg/kg s.c. at 0 hours, BrdU 1 hour before sacrifice; for dose producing maximal hepatocyte proliferation at 24 hours: dose response curves, subcutaneous injection, single factor; for time after injection having maximum liver cell proliferation: time course 6-30 hours
Procedure: Male Wistar rats weighing 200-250 grams were used. They were housed in a temperature and light controlled room (12 hour light/dark cycle) and were allowed water and food ad libitum.
T3 (Sigma, St. Louis, Mo. USA), 4 mg per kilogram of body weight was dissolved in 100 μl of 0.01 M NaOH in […] NaCl and administered by subcutaneous injection in the flank region of the animal.
Lyophilized KGF (full lenght recombinant KGF, AMGEN, Thousand Oaks, Calif.) 1 mg per kilogram of body weight was dissolved in 100 μl of a suitable buffer (0.01% by weight polyoxyethylenesorbitan monolaurate (TWEEN 20, Sigma) solution) and administered by subcutaneous injection in the flank region of the animal.
Measurement of liver cell proliferation was performed by BrdU labeling. BrdU (Sigma) (50 mg/kg dissolved in 800 μl of 0.9% NaCl) was injected intraperitoneally 1 hour prior to sacrifice. Livers of the animals were removed and fixed in 60% methanol, 30% chloroform and 10% glacial acetic acid before routine histological processing and embedding in wax blocks. The incorporation of BrdU into hepatic nuclei was detected in 4 μm thick sections using a mouse monoclonal antibody (Dako, Glostrup, Denmark), followed by a biotinilated rabbit anti-mouse secondary antibody (Dako). Visualization was achieved by the indirect peroxidase technique using diaminobenzidine tetrahydrochloride dihydrate (Aldrich Chemical, Milwaukee, Wis. USA) as a substrate. The labeling index and percentage of hepatic mitoses was determined by counting 2000 hepatocytes per section from consecutive light microscopy fields. See Forbes, et al., Gene Therapy 5:552-555 at 553 (1998)(incorporated herein by reference in its entirety).
Dose response curves were initially performed to identify the dose at which KGF and T3 independently cause maximum hepatocyte proliferation at 24 hours.
The times after injection having maximum liver cell proliferation (as measured by DNA synthesis), were also independently established for each of the individual factors. An injection corresponding to the dose producing maximal cell proliferation, as established in Example 1, was independently administered to 2 groups of subjects, one group for each factor. Dividing cells were labelled by administering BrdU 1 hour prior to sacrifice. At 6, 9, 12, 15, 18, 24, and 30 hours after injection three animals of each group were sacrificed and labelled liver cells counted.
While searching for a manner of producing a clinically acceptable level of liver cell proliferation without a need for prior injury to the liver, a series of experiments were performed whereby a combination of factors was administered to subjects and liver cell proliferation measured 24 hours after administration. […] factor combinations were independently tested, each combination in a different group of animals. A first group received 4 mg/kg T3 at 0 hours. A second group received 1 mg/kg KGF at 0 hours. A third group received 1 mg/kg KGF and 4 mg/kg T3 at 0 hours. A fourth group served as control and received the vehicle or diluent only.

hepatocytes [2] = conditions: retroviral vector given after growth factor administration; literature reports (Bosch 1996, Kosai 1998, Forbes 1998); cited from earlier work
hepatocytes [3] = format: in vivo, rat; conditions: for proportion of hepatocytes transfected/transduced (β-galactosidase): growth factor at hour 0, 1 ml retrovirus intraportally at 24 hours, killed 9 days after vector; for zones of the liver where transfected hepatocytes were found: intraportal vector at 24 hours, 9 days after vector
Procedure: Animals were anesthetized with isoflurane. A midline laparotomy was performed, the bowel was deflected to the left and wrapped in normal saline-soaked gauze. The portal vein and hepatic artery were clamped using micro-aneurysm clips, the portal vein was cannulated with a 26-gauge needle proximal to the clip and 1 ml of retroviral supernatant was injected over 5 minutes. Hemostasis was achieved by direct pressure to the portal vein and topical thrombin (Sigma) application. The clips were removed and the abdomen sutured, and the animals were allowed to recover in a warm, quite environment. […] For peripheral vein injection, 1 ml of the retrovirus/DOGS complex was injected via tail vein as a bolus.
Transduction of liver cells was measured by β-galactosidase activity. Animals were anesthetized and sacrificed by exsanguination. The liver was removed and frozen in liquid nitrogen. Ten-micron frozen sections were cut on to glass slides, fixed in a solution of 1.25% glutaraldehyde at 4° C., washed with phosphate buffered saline (PBS) then covered in X-gal (Gibco BRL, Grand Island, N.Y.) solution (1 mg/ml, pH 7.4) and incubated overnight at 37° C. Sections were then washed in PBS, counterstained lightly with eosin or carmalum stain, dehydrated and mounted in pertex (Cellpath, Hemel Hempstead, UK). The proportion of hepatocytes expressing nuclear β-galactosidase was calculated by counting 2000 hepatocytes per section from three separate areas.
At hour 0, several groups of four rats received an administration of either a single growth factor (either 4 mg/kg T3 or 1 mg/kg KGF) or the combination of 4 mg/kg T3/1 mg/kg KGF. A control group of three rats received injections of the growth factor diluents only. At 24 hours all rats were injected intraportally with 1 ml of retrovirus during temporary hepatic artery and portal vein occlusion. All rats were killed 9 days following vector administration.

N[C@@H](Cc1cc(I)c(Oc2ccc(O)c(I)c2)c(I)c1)C(=O)O [T3, tri-iodothyronine, reference compound]
zones of the liver showing cell proliferation (hepatocytes [1]): predominantly in the mid-zonal region
proportion of hepatocytes proliferating (BrdU labelled, S-phase) at 24 hours (hepatocytes [1]): approximately 10%
dose producing maximal hepatocyte proliferation at 24 hours (hepatocytes [1]): 4 mg/kg
time after injection having maximum liver cell proliferation (hepatocytes [1]): 24 h
liver cells (hepatocytes) transduced in vivo (hepatocytes [2]): about 1.3%
proportion of hepatocytes transfected/transduced (β-galactosidase) (hepatocytes [3]): approximately 1.2%
zones of the liver where transfected hepatocytes were found (hepatocytes [3]): mostly found in the mid-zonal region

hepatocyte growth factor: hepatocyte growth factor, cited from Kosai et al.
liver cells (hepatocytes) transduced in vivo (hepatocytes [2]): 1.3%

B1: KGF: full length recombinant keratinocyte growth factor polypeptide (AMGEN) (protein, UniProt P21781 1-194, looked up)
chain: MHKWILTWILPTLLYRSCFHIICLVGTISLACNDMTPEQMATNVNCSSPERHTRSYDYMEGGDIRVRRLFCRTQWYLRIDKRGKVKGTQEMKNNYNIMEIRTVAVGIVAIKGVESEFYLAMNKEGKLYAKKECNEDCNFKELILENHYNTYASAKWTHNGGEMFVALNQKGIPVRGKKTKKEQKTAHFLPMAIT
modifications: full-length
zones of the liver showing cell proliferation (hepatocytes [1]): all zones of the liver
proportion of hepatocytes proliferating (BrdU labelled, S-phase) at 24 hours (hepatocytes [1]): approximately 9%
dose producing maximal hepatocyte proliferation at 24 hours (hepatocytes [1]): 1 mg/kg
time after injection having maximum liver cell proliferation (hepatocytes [1]): 24 h
liver cells (hepatocytes) transduced in vivo (hepatocytes [2]): 2%
proportion of hepatocytes transfected/transduced (β-galactosidase) (hepatocytes [3]): approximately 1%
zones of the liver where transfected hepatocytes were found (hepatocytes [3]): found in all zones of the liver
